According to publication PMC5786021, “A dynamic allosteric pathway underlies Rad50 ABC ATPase function in DNA repair” (Scientific Reports, 2018):
Like-named read-outs stand apart in the source and are kept apart here.

What was measured:
Mre11^HLH-Rad50^NBD [1] = target: T1, Mre11^HLH-Rad50^NBD (Pyrococcus furiosus, UniProt P58301, DEL196-708); assay: fluorescence polarization competition with BODIPY FL ATP; format: binding
T1 construct: Mre11 helix-loop-helix aa344-426; His and NusA-His tags removed with TEV; E. coli; monomeric without nucleotide; with DNA double-strand break repair protein Mre11

Mre11^HLH-Rad50^NBD [2] = target: T2, Mre11^HLH-Rad50^NBD (Pyrococcus furiosus, UniProt P58301, DEL196-708/R805E); assay: as above; format: binding
T2 construct: Mre11 helix-loop-helix aa344-426; His and NusA-His tags removed with TEV; E. coli; monomeric without nucleotide; with DNA double-strand break repair protein Mre11

Mre11_2-Rad50^NBD2 = target: T3, Mre11_2-Rad50^NBD2 (Pyrococcus furiosus, UniProt P58301, DEL196-708); assay: 2-aminopurine DNA exonuclease fluorescence; format: biochemical; conditions: 1 mM AMP-PNP, 1 mM MnCl2, 5 mM MgCl2, 50 mM Tris pH 7.5, 60 °C; allosteric via Rad50
T3 construct: about 160 kDa; E. coli; with DNA double-strand break repair protein Mre11
T3 sequence (P58301 709-882, stated change not applied): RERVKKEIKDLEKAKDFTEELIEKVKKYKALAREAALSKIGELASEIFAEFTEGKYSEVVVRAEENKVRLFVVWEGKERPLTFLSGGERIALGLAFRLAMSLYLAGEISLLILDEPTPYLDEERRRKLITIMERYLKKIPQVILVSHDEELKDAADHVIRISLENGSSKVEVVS
T3 sequence (P58301 1-195, stated change not applied): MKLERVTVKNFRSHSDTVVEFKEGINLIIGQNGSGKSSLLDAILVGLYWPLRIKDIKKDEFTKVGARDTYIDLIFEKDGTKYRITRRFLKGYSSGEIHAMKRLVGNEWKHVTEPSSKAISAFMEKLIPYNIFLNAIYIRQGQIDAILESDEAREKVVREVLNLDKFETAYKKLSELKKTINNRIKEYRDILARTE

T1 sequence (P58301 709-882, stated change not applied, other chains not shown): as the sequence (P58301 709-882, stated change not applied) above
T1 sequence (P58301 1-195, stated change not applied, other chains not shown): as the sequence (P58301 1-195, stated change not applied) above
T2 sequence (P58301 709-882 R805E, other chains not shown): as the sequence (P58301 709-882, stated change not applied) above, with R97E counted along it
T2 sequence (P58301 1-195, stated change not applied, other chains not shown): as the sequence (P58301 1-195, stated change not applied) above

How did the Ki (Mre11^HLH-Rad50^NBD [1]; read-out: KI,ADP) turn out when `Nc1ncnc2c1ncn2[C@@H]1O[C@H](COP(=O)(O)OP(=O)(O)O)[C@@H](O)[C@H]1O` [ADP] was run?
Its Ki is 6.5 µM.

Which results are given for `Nc1ncnc2c1ncn2[C@@H]1O[C@H](COP(=O)(O)OP(=O)(O)OP(=O)(O)O)[C@@H](O)[C@H]1O` [ATP]?
Ki (Mre11^HLH-Rad50^NBD [1]): 9.8 µM; Ki (Mre11^HLH-Rad50^NBD [2]): 3 µM

With `Nc1ncnc2c1ncn2[C@@H]1O[C@H](COP(=O)(O)OP(=O)(O)NP(=O)(O)O)[C@@H](O)[C@H]1O` [AMP-PNP] as the molecule, how does the “reduction in Mre11 exonuclease activity” value (Mre11_2-Rad50^NBD2) read?
The value was “non-hydrolyzable ATP analog AMP-PNP resulted in a dramatic reduction in exonuclease activity”.
